Literature values as cited in US6464987B1, “Pharmaceutical compositions capable of being gelled” (UCB, S.A., priority 1998, dated 2002).
Read-outs that look alike come from different tables or passages of the source.

What was measured:
[1] = mouse, in vivo
humans = settings: PLA-GA implants or PLA-GA microparticles

SMILES	bioavailability ([1]; im)	bioavailability ([1]; sc)	level of testosterone in the blood (humans)
NC(=O)[C@@H]1CCCN1C(=O)[C@H](Cc1cnc[nH]1)NC(=O)[C@@H]1CCC(=O)N1 [TRH, thyrotropin releasing hormone]	31.4%	67.5%	
CC(C)C[C@H](NC(=O)[C@@H](COC(C)(C)C)NC(=O)[C@H](Cc1ccc(O)cc1)NC(=O)[C@H](CO)NC(=O)[C@H](Cc1c[nH]c2ccccc12)NC(=O)[C@H](Cc1cnc[nH]1)NC(=O)[C@@H]1CCC(=O)N1)C(=O)N[C@@H](CCCNC(=N)N)C(=O)N1CCC[C@H]1C(=O)NNC(N)=O [gosereline]			very significant and lasting decrease
